# Several values for one entry are separate records, joined by “and”; a condition that tells them apart may be missing. Identical values can stand only once.
# Biological target: IN-GCN2 interaction (6xHis-IN / GST-GCN2) (UniProt P04585+Q9P2K8)
# Experiment: biochemical
# Format: binding, HIV-1 IN; human GCN2
# Conditions: screen; for IN-GCN2 interaction (%): single dose 100 µM, single replicate, residual AlphaLISA signal normalized to DMSO control
# Sequence of IN-GCN2 interaction (6xHis-IN / GST-GCN2) (Q9P2K8 192-1024, other chains not shown): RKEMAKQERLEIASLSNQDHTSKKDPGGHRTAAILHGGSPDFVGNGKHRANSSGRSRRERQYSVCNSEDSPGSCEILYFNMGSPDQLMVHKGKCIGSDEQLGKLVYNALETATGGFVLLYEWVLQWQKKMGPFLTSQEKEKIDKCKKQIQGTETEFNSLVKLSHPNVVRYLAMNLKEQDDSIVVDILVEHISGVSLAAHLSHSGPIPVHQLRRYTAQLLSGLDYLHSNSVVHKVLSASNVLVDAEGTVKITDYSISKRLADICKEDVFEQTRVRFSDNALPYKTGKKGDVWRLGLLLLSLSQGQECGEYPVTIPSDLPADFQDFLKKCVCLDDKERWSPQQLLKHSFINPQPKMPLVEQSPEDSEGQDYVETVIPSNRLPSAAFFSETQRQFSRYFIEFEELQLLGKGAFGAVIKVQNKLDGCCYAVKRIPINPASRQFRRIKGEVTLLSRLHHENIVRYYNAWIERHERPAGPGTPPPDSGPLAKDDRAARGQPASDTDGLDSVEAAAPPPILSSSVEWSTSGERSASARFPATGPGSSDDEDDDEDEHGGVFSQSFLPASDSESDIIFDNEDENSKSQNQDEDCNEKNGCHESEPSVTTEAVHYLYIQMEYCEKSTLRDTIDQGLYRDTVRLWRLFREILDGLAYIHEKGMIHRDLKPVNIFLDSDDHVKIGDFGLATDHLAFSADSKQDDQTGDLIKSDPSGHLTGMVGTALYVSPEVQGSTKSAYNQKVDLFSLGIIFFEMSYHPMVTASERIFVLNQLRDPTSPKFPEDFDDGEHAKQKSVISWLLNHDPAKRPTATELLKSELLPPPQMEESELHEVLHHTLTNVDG
smiles,measurement,setting,value
C=C1C(=O)C2=CC1CCC(=O)C1(C)CCC(OC(C)=O)C(C)(C)C1CC2O (centres unmarked) [NSC302979],IN-GCN2 interaction (%),,105.64%
COc1ccc2c(c1O)-c1c(OC)c(OC)cc3c1[C@H](C2)N(C)CC3 [NSC32979],IN-GCN2 interaction (%),,119.47%
CC(=O)OC1CCC2(C)C(=CCC3C2CCC2(C)C3CC3OC4(CCC(C)CN4)C(C)C32)C1 (centres unmarked) [NSC96021],IN-GCN2 interaction (%),,132.69%
COc1cc2c3c(c1OC)Oc1ccc(cc1)C[C@H]1c4c(cc(OC)c(OC)c4Oc4ccc(cc4)C[C@H]3N(C)CC2)CCN1C [NSC785174],IN-GCN2 interaction (%),,57.96%
Br.C=CC1CN2CCC1CC2C(O)c1ccnc2ccc(OC)cc12 (centres unmarked) [NSC12865],IN-GCN2 interaction (%),,97.92%
O=c1cc(-c2ccccc2)oc2ccccc12 [NSC19028],IN-GCN2 interaction (%),,58.68%
CO[C@@H]1/C=C/O[C@@]2(C)Oc3c(C)c(O)c4c(c3C2=O)C(=N[C@@H]2CC[C@@H](O)O[C@H]2C)C=C(NC(=O)/C(C)=C\C(=O)[C@@H]2C[C@@H]2[C@H](O)[C@@H](C)[C@@H](O)[C@@H](C)[C@H](OC(C)=O)[C@@H]1C)C4=O [NSC177383],IN-GCN2 interaction (%),,103.89%
Oc1ccc2c(c1)OC[C@]1(O)Cc3cc(O)c(O)cc3[C@H]21 [NSC8661],IN-GCN2 interaction (%),,86.68%
CO[C@H]1/C=C/O[C@@]2(C)Oc3c(C)c(O)c4c(O)c(cc(O)c4c3C2=O)NC(=O)/C(C)=C\C=C\[C@H](C)[C@H](O)[C@@H](C)[C@@H](O)[C@@H](C)[C@H](OC(C)=O)[C@@H]1C [NSC133100],IN-GCN2 interaction (%),,111.79%
COC(=O)[C@H]1[C@H](O)[C@H](C)[C@@H](O)[C@](C)(O)/C=C(\C)C2=C3C(=C(C)C(=O)c4c(O)c(c(C)c(OC(C)=O)c43)NC(=O)/C(C)=C/C=C\[C@](C)(O)[C@@H](O)[C@@H](C)[C@H]1O)OCO2 [NSC156219],IN-GCN2 interaction (%),,73.43%
CCC(C)c1cnc(CC(C)C)c(=O)n1O (centres unmarked) [NSC22939],IN-GCN2 interaction (%),,88.97%
COc1c(O)ccc2c1-c1c3c(cc4c1[C@H](C2)N(C)CC4)OCO3 [NSC785147],IN-GCN2 interaction (%),listed as 785147,67.05%
O=C1N[C@@H]2C(=C[C@H](O)[C@@H](O)[C@H]2O)c2cc3c(cc21)OCO3 [NSC349155],IN-GCN2 interaction (%),,100.93%
CC1(C)CCC2=C(O1)c1ccccc1C(=O)C2=O [NSC26326],IN-GCN2 interaction (%),,107.59%
COc1ccc2c(c1OC)CN1CCc3cc4c(cc3C1C2)OCO4 (centres unmarked) [NSC36351],"effect on IN-GCN2 interaction in the screen, in words","100 µM, inactive = within 10% of the DMSO control",inactive
same,IN-GCN2 interaction (%),,108.61%
C=C1C(=O)[C@]23[C@H](O)[C@H]1CC[C@H]2[C@@]12CO[C@]3(O)[C@@H](O)[C@@H]1C(C)(C)CC[C@@H]2O [NSC250682],IN-GCN2 interaction (%),,99.31%
COC1CCC(OC2CC(C3(C)CCC4(CC(O)C(C)C(C(C)/C=C(\C)C(=O)C(C)CC(C)C(=O)O)O4)O3)OC3(OC(C4OC(O)(CO)C(C)CC4C)CC3C)C2C)OC1C (centres unmarked) [NSC138320],IN-GCN2 interaction (%),,102.91% and 57.85%
COc1cc2c3c(c1OC)-c1ccccc1C[C@H]3N(C)CC2 [NSC785145],IN-GCN2 interaction (%),,66.76%
CCCn1cc2c3c(cccc31)[C@H]1C[C@@H](C)CN(C)[C@@H]1C2.O=C(O)C(O)C(O)C(=O)O [NSC332294],IN-GCN2 interaction (%),,41.41%
COc1cc2c3c(c4ccc(OC)c(OC)c4c2cc1OC)CN1CCC[C@@H]1C3 [NSC60387],IN-GCN2 interaction (%),,110.26%
COc1ccc2[nH]c3c(C)c4ccncc4c(C)c3c2c1 [NSC69187],IN-GCN2 interaction (%),,42.76%
CC(C)=CCc1ccc(O)c(=O)cc1C(C)C [NSC43339],IN-GCN2 interaction (%),,101.87%
NC(=S)c1cn(C2OC(CO)C(O)C2O)c2ncnc(N)c12 (centres unmarked) [NSC105827],IN-GCN2 interaction (%),,100.77%
CC[C@H]1CN2CCc3cc(OC)c(OC)cc3[C@@H]2C[C@@H]1C[C@H]1NCCc2cc(O)c(OC)cc21 [NSC32944],IN-GCN2 interaction (%),,81.67%
COc1cc2c3c(c1O)-c1ccccc1C[C@@H]3N(C)CC2 [NSC785170],IN-GCN2 interaction (%),listed as 785170,99.49%
O=C(O)/C(O)=C(/O)C(=O)O [NSC30238],IN-GCN2 interaction (%),,100.21%
O=C1C=C([C@@H]2O[C@H](CO)[C@@H](O)[C@H]2O)C(=O)N1 [NSC93047],IN-GCN2 interaction (%),,117.57%
COc1cc2c(cc1OC)C13CCN4CC5CCOC6CC(=O)N2C1C6C5CC43 (centres unmarked) [NSC72917],IN-GCN2 interaction (%),,90.85%
COc1ccc(O)c2c(=O)c3c(OC)cc4c(c3oc12)[C@@H]1C=CO[C@@H]1O4 [NSC178249],IN-GCN2 interaction (%),,73.18%
Cc1cc2nc3[nH]c(=O)[nH]c(=O)c3nc2cc1C [NSC96911],IN-GCN2 interaction (%),,89.81%
CC(=O)O[C@H]1C[C@]2(O)[C@@H]3CC[C@@H]4C[C@@H](O)CC[C@]4(C)[C@H]3CC[C@]2(C)[C@H]1C1=CC(=O)OC1 [NSC148790],IN-GCN2 interaction (%),,114.66%
C=C1C(=O)OCC2C(C(=O)O)=CC3C(C)C(C)=CC123 (centres unmarked) [NSC145150],IN-GCN2 interaction (%),,111.51%
C[C@@H]1C[C@H]2OC(=O)[C@@]3(C)CCC[C@@](C)([C@@H]23)[C@@]1(O)CCc1ccoc1 [NSC36693],IN-GCN2 interaction (%),,92.00%
CC(O)CCC(=O)c1ccoc1 (centres unmarked) [NSC349438],IN-GCN2 interaction (%),,84.65%
Nc1ncnc2c1ncn2C1OCC(O)C1O (centres unmarked) [NSC330917],IN-GCN2 interaction (%),,127.88%
COC1=CC(=O)C(C2CC(=O)c3c(O)cc(O)cc3O2)=CC1=O (centres unmarked) [NSC169517],IN-GCN2 interaction (%),,98.58%
COC(=O)CC[C@@H](C)[C@H]1CC[C@@]2(C)[C@@H]3C(=O)C[C@H]4C(C)(C)[C@@H](OC(C)=O)CC[C@]4(C)[C@H]3C(=O)C[C@]12C [NSC34202],IN-GCN2 interaction (%),,97.47%
O=C1N[C@@H]2C(=C[C@H](O)[C@@H](O)[C@H]2O)c2cc3c(c(O)c21)OCO3 [NSC266535],IN-GCN2 interaction (%),,138.97%
COc1c2c(c3c(c1CCC(=O)O)OC(C)(C)C=C3)OC(C)(C)C=C2 [NSC83436],IN-GCN2 interaction (%),,100.62%
CC1(C)[C@H](C(=O)O)CC[C@]1(C)C(=O)O [NSC824],IN-GCN2 interaction (%),,90.14%
C=C[C@]1(C)C=C2CC[C@@H]3[C@](C)(CCC[C@@]3(C)C(=O)O)[C@H]2CC1 [NSC6435],IN-GCN2 interaction (%),,127.66%
Oc1ccc(Cc2nccc3cc(O)c(O)cc23)cc1O [NSC99799],IN-GCN2 interaction (%),,58.53%
CC(C)=CCCC(C)C1=C(O)C(=O)C(C)=CC1=O (centres unmarked) [NSC365793],IN-GCN2 interaction (%),,50.48%
CC1=C(O)C(=O)C=C2C1=CC=C1[C@@]2(C)CC[C@@]2(C)[C@@H]3C[C@](C)(C(=O)O)CC[C@]3(C)CC[C@]12C [NSC70931],IN-GCN2 interaction (%),,100.77%
C[C@@H]1C(=O)C[C@H]2C(C)(C)CCC[C@]2(C)[C@@]1(O)CCc1ccoc1 [NSC332876],IN-GCN2 interaction (%),,44.59%
COc1ccc2c3c([nH]c2c1)[C@H]1C[C@H]2[C@H](C[C@@H](O)[C@H](OC)[C@H]2C(=O)O)CN1CC3 [NSC81463],IN-GCN2 interaction (%),,97.85%
CC(C)=CCC1=C(O)c2ccccc2C(=O)C1=O [NSC11905],IN-GCN2 interaction (%),,107.31%
CC[C@H]1OC(=O)[C@H](C)[C@@H](OC2CC(C)(OC)C(O)C(C)O2)[C@H](C)[C@@H](OC2OC(C)CC(N(C)C)C2OC(=O)CCC2CCCC2)[C@](C)(O)C[C@@H](C)C(=O)[C@H](C)[C@@H](O)[C@]1(C)O (some centres unmarked) [NSC63946],IN-GCN2 interaction (%),,43.14%
CCCCCC[C@@H]([C@@H](C)O)n1cnc2c(N)ncnc21 [NSC263164],IN-GCN2 interaction (%),,111.18%
CO[C@H]1C[C@@H]2CC[C@@H](C)[C@@](O)(O2)C(=O)C(=O)N2CCCC[C@H]2C(=O)O[C@H]([C@H](C)C[C@@H]2CC[C@@H](O)[C@H](OC)C2)CC(=O)[C@H](C)/C=C(\C)[C@@H](O)[C@@H](OC)C(=O)[C@H](C)C[C@H](C)/C=C/C=C/C=C/1C [NSC226080],IN-GCN2 interaction (%),,54.18%
O=C(O)c1cc(O)c(O)c(O)c1 [NSC20103],IN-GCN2 interaction (%),,83.04%
COC(=O)[C@@H]1[C@H]2C[C@@H]3c4[nH]c5ccccc5c4CCN3C[C@@H]2CC[C@@H]1O [NSC72116],IN-GCN2 interaction (%),,99.30%
C=C(C)[C@H]1Cc2c(ccc3c2O[C@@H]2COc4cc(OC)c(OC)cc4[C@@H]2C3=O)O1 [NSC26258],IN-GCN2 interaction (%),,55.12%
C=C1C(=O)OC2CC1C(OC(C)=O)C/C(C)=C/CC/C(C)=C\CCC2(C)O (centres unmarked) [NSC46728],IN-GCN2 interaction (%),listed as 46728,93.27%
C[C@@H]1C[C@@H]2CCCC(O)=C2C(=O)O1 [NSC112906],IN-GCN2 interaction (%),,126.27%
O=C(O)CC1OCC=C2CN3CCC45c6ccccc6NC4C1C2CC35 (centres unmarked) [NSC121860],IN-GCN2 interaction (%),,104.59%
COc1c2c(cc3c1C1Oc4c(ccc(O)c4CC=C(C)C)C1CO3)OC(C)(C)C=C2 (centres unmarked) [NSC250430],IN-GCN2 interaction (%),,16.46%
C=C1C(=O)OC2CC1C(OC(C)=O)C/C(C)=C/CC/C(C)=C\CCC2(C)O (centres unmarked) [NSC36437],IN-GCN2 interaction (%),listed as 36437,73.91%
C[C@@H]1O[C@@H](O[C@@H]2C=C3CC[C@@H]4[C@H](CC[C@]5(C)[C@@H](c6ccc(=O)oc6)CC[C@]45O)[C@@]3(C)CC2)[C@H](O)[C@H](O)[C@H]1O[C@@H]1O[C@H](CO)[C@@H](O)[C@H](O)[C@H]1O [NSC7525],IN-GCN2 interaction (%),,99.88%
C=C1C(=O)O[C@@H]2/C=C(/CO)CC/C=C(/CO)C[C@@H](OC(=O)C(C)C)[C@@H]12 [NSC295426],IN-GCN2 interaction (%),,56.21%
CC[C@H](C)C(=O)O[C@H]1CCC=C2C=C[C@H](C)[C@H](CC[C@@H]3C[C@@H](O)CC(=O)O3)[C@H]21 [NSC281245],IN-GCN2 interaction (%),,54.75%
CO[C@@H]1[C@@H](OC(=O)c2ccc(C)[nH]2)[C@@H](O)[C@H](Oc2ccc3c(O)c(NC(=O)c4ccc(O)c(CC=C(C)C)c4)c(=O)oc3c2Cl)OC1(C)C [NSC227186],IN-GCN2 interaction (%),,36.34%
COc1cc(/C=C/C(=O)CC(=O)/C=C/c2ccc(O)c(OC)c2)ccc1O [NSC32982],IN-GCN2 interaction (%),,15.01%
COC(=O)[C@@]12OC[C@]34[C@H]([C@@H](O)[C@@H]1O)[C@@]1(C)CC(=O)C(O)=C(C)[C@@H]1C[C@H]3OC(=O)[C@H](OC(=O)C=C(C)C)[C@@H]24 [NSC172924],IN-GCN2 interaction (%),,122.74%
